Structures are written as SMILES.

In the case of `CCOC(=O)CNc1c(Br)cc(Br)cc1Br`, the melting point was 81 to 82 °C.
The result for `O=c1c2cc(F)c(Cl)nc2n(-c2cccc(C(F)(F)F)c2)c(=O)n1OCc1ccccc1` reads 207 to 208 °C; that for `O=[N+]([O-])c1cc(-c2nnc(Cl)cc2O)ccc1Cl`, 204 to 209 °C.
The result for `CC(C)(C)NC(=O)[C@@H]1CCCN1C(=O)[C@@H](O)[C@H](Cc1ccccc1)NC(=O)[C@H](CC(N)=O)NC(=O)COc1ccc(NC(=O)CNCCN2CCOCC2)cc1` reads 123 to 132 °C; that for `Clc1ccc(-c2c[nH]cn2)cc1`, 146 to 148 °C.
In the case of `CC(=O)Nc1ccc(Nc2c(NCc3ccco3)cc(C(=O)O)cc2S(=O)(=O)Nc2ccccc2NC(C)=O)cc1`, the melting point stood at 258 °C.
Take `CC(C)[C@H](NC(=O)OCc1ccc2ccccc2n1)C(=O)N[C@@H](Cc1ccccc1)[C@@H](O)C[C@H](Cc1ccccc1)NC(=O)OCc1cccnc1`: the melting point lay within 159 to 163 °C.
Turning to `CNC(=O)N1N=C(c2ccc([N+](=O)[O-])cc2)c2ccc(Cl)cc2CC1C` (stereo unspecified), the melting point lay within 224 to 226 °C.
In the case of `CCOC(=O)CNC(=O)c1cccs1` it was 82 to 83 °C; in that of `Cc1nc(C)c(Cl)c(NCCCSc2ccnc(CNc3nc(C)nc(C)c3Cl)c2C)n1`, 170 to 174 °C; in that of `COc1ccc(COc2ccc(Oc3c(C)cc(/C=C/C(=O)N4CCN(Cc5ccc(/C=C/COc6ccc(C)cc6)cc5)CC4)cc3C)nc2)cc1`, 130 to 132 °C.
For the compound `CC(NC(=S)N1CCc2c([nH]c3ccccc23)C1c1ccc2c(c1)OCO2)c1ccccc1` (stereo unspecified), the melting point was in the range of 117 to 121 °C.
The result for `N=C(N)N1CCC(CC(=O)O)CC1` reads over 310 °C; that for `COC(=O)c1c(OC)cc(C(F)(F)F)nc1C(F)(F)F`, 101 to 103 °C.
In the case of `COc1ccc(C[C@H]2Cc3cc(C)cnc3[C@H](C)C2)cc1` it was 218 to 222 °C; in that of `COc1ccc(Cl)cc1C(=O)NCCc1ccc(CCCCCCC(=O)O)cc1`, 36 °C.
In the case of `COCc1cc(O)c2nc(C)n(C)c2c1` it was 219 to 220 °C; in that of `CC(=O)Nc1ccc(-c2ccc(C(=O)O)c(=O)[nH]2)cc1`, over 260 °C; in that of `COCOCc1nc2nccnc2c(=O)[nH]1`, 161 to 163 °C.
`BrCc1cccc2c(-c3ccccc3)onc12` registered a melting point of 125 to 126 °C.
In the case of `CSc1ccc2nc(-c3cccc(C)c3)c(-c3ccnc(NC4CCCCC4)c3)n2n1` it was 150 to 151 °C; in that of `C=C(C)C(=O)Oc1ccc(S(=O)(=O)ON=C2CCCc3ccccc32)cc1`, 108 to 109 °C.
`Cc1cc(C)cc(C(=O)NC(=S)Nc2c(O)cc(C)c(Br)c2C)c1` returned a melting point of 164 to 166 °C.
The result for `COc1ccc(Nc2ccc(-c3ccnc(Nc4cc(OC)c(OC)c(OC)c4)n3)cn2)cc1` reads 209 to 210 °C; that for `CC(C)N1C(Oc2ccccc2[N+](=O)[O-])=NS(=O)(=O)N=C1Oc1ccccc1[N+](=O)[O-]`, 259 to 263 °C.
In the case of `COc1ccc(-c2cnc3cc4[nH]ncc4cc3n2)cc1F` it was over 250 °C; in that of `CCCCCCCCCCc1ccc(-c2ccc(OC)c(F)c2)cc1`, 102 °C; in that of `CC1(C)OC(=O)Nc2ccc(/C(=C/C#N)c3ccccc3)cc21`, 205 to 206 °C.
In the case of `Nc1cc2c(Nc3ccc(F)c(Cl)c3)ncnc2cc1OCC1CC1` it was 208 °C; in that of `N#Cc1ccc(/C=C/C(=O)/C=C/c2ccc(C#N)cc2)cc1`, 137 to 138 °C.
Take `CCOC(=O)c1cn(Cc2cnsn2)c2nc(Cl)c(F)cc2c1=O`: the melting point was 175 to 177 °C.
In the case of `COc1ccc(N2CCN(c3c(C)c4c(c(C(C)O)c3C)OC(C)(C)C4)CC2)cc1` (stereo unspecified) it was 183 to 186 °C.
`CNC(=C[N+](=O)[O-])NCCCCc1ccccn1` returned a melting point of 90 to 91 °C.
In the case of `COc1c(C2CCN(CCCCNC(=O)c3ccc(-c4ccc(C#N)cc4)cn3)CC2)ccc2c1CCCC2` it was 140 °C; in that of `COc1c(N2CCNC(C3CC3)C2)c(F)cc2c(=O)c(C(=O)O)cn([C@@H]3C[C@@H]3F)c12` (stereo partly specified), 136 to 139 °C; in that of `COc1ccccc1SCC1SCCN1C(=O)CCl` (stereo unspecified), 127 to 129 °C.
`COc1cc2c(Nc3ccc(C)c(O)c3)ncnc2cc1OCc1cccnc1`: the melting point is 258 to 259 °C.
In the case of `CCOC(=O)c1c(C(F)(F)F)nc(C(F)F)c(C=O)c1CC` it was 63.5 to 65 °C; in that of `CCCCC(C(=O)OCC)=C(Nc1cccc(SC)c1)C(=O)OCC`, 55 °C.
Regarding `CC1(C)OC(C=Cc2cccs2)=CC1=O`, the melting point was in the range of 75 to 77 °C.
In the case of `CCCN(C=O)n1cc(C(=O)OCC)c(=O)c2cc3c(cc21)OCO3` it was 188 to 192 °C; in that of `CCCCCCCOc1ccc(C(=O)CCC(=O)O)cc1`, 104 to 106 °C; in that of `CC(C)c1nc2cc(COc3ccc(CC4OC(=O)N(C(c5ccccc5)(c5ccccc5)c5ccccc5)C4=O)cc3)ccc2o1` (stereo unspecified), 123 to 125 °C.
The result for `Cc1ccc(S(=O)(=O)C2(CC#Cc3ccc(Cl)cc3)CC(=O)NC2=O)cc1` (stereo unspecified) reads 186 to 188 °C; that for `O=C(O)c1ccccc1Oc1ccc(Br)cc1NS(=O)(=O)c1cc(C(F)(F)F)cc(C(F)(F)F)c1`, 158 to 159 °C; that for `CCCC1=C(C(=O)OCC)C(c2cccc(C)c2Cl)c2c[nH]nc2N1` (stereo unspecified), 198 to 200 °C.
`CCOCCc1ccc(OCCNc2ncnc3scc(C)c23)c(C)c1`: the melting point was in the range of 55 to 57 °C.
Regarding `CC(C)(C)c1cc(Cc2c(S)ccc3ccccc23)cc(C(C)(C)C)c1O`, the melting point was 30 °C.
The result for `O=C(c1cccc([N+](=O)[O-])c1)N1CCOCC1` reads 83.5 to 85 °C.
The result for `CCCS(=O)c1cc(OCCOc2ccccc2)ccc1C` (stereo unspecified) reads 115 to 116 °C; that for `CN1C(C)(C)CC(O)(CN2C(=O)C3(COc4cc5c(cc43)OCO5)c3ccccc32)CC1(C)C` (stereo unspecified), 210 to 214 °C; that for `COc1cc2c(c(Cl)c1Cl)C(=O)C(C)(c1ccccc1)C2` (stereo unspecified), 161 to 163 °C.
The result for `CCOC(C#CC(=O)c1cc(OC)c(OC)c(OC)c1)OCC` reads 52 to 54 °C; that for `Clc1cc(Cl)nc(-c2ccc(Sc3ccccc3)cc2)n1`, 94 to 97 °C; that for `CN1CCC(C2Oc3cc(Cl)ccc3Cn3c(Cl)ccc32)CC1` (stereo unspecified), 132 to 140 °C.
The compound `Cc1nc(-n2ccc(O)cc2=O)sc1C(=O)NCC1CC1` registered a melting point of 240 to 242 °C.
Compound `CSc1cn(C)c2cc(-c3cccc(Cl)c3)sc2c1=O` displayed a melting point of 234 to 236 °C.
The result for `Cc1c(N2CCN(C(=O)OC(C)(C)C)CC2)nn2c(-c3ccncc3)c(-c3ccc(F)cc3)nc2c1C` reads 231 to 233 °C; that for `CCOC(=O)[C@H](Cc1ccc(-c2c(OC)cc(CN3CCSCC3)cc2OC)cc1)NC(=O)c1c(Cl)cccc1Cl`, 86 to 89 °C; that for `CC(=O)Oc1ccc(C(CC(=O)O)CC(=O)OCC(=O)C2CCC3C4CCC5=CC(=O)CCC5(C)C4C4CC23C(O)O4)cc1` (stereo unspecified), 145 to 160 °C.
Compound `CCOc1ccc([N+](=O)[O-])c(C=C[N+](=O)[O-])c1OCc1ccccc1` yielded a melting point of 110 °C.
In the case of `O=C(CCCl)Nc1ccc(C(=O)c2ccccc2)cc1` it was 135 to 136 °C; in that of `O=C(Nc1ccn(C2OC(CO)C(O)C2(F)F)c(=O)n1)OCc1ccc([N+](=O)[O-])s1` (stereo unspecified), 144 to 148 °C.
The result for `O=C(O)C=CC(=O)NCCC(=O)O` reads 150 to 152 °C; that for `CC(C)(CCc1noc(=O)[nH]1)c1ccc(C(=O)Nc2cn3cc(-n4ccnc4)ccc3n2)cc1`, 283 to 284 °C; that for `Cc1ccn2cc(CN3CCN(c4ccc(C(N)=O)cc4)CC3)nc2c1`, 217 to 218 °C.
In the case of `Fc1ccc(Cn2c(NC3CCN(CCNc4nc5ccccc5[nH]4)CC3)nc3ccccc32)cc1` it was 253 °C; in that of `OCc1cnc(-c2ccc(OC(F)(F)F)cc2)nc1`, 84 to 85 °C; in that of `C=C1CCC2=C(C1)CC(C)C1C2CCC2(C)C(O)CCC12` (stereo unspecified), 112 °C.
`C=CCOc1ccc2oc(C(=O)c3ccc(OC)cc3)c(C)c2c1` displayed a melting point of 74 to 76 °C.
In the case of `COC(=O)C(Cc1ccc(O)cc1)OC` (stereo unspecified) it was 61 to 63 °C; in that of `CCOC(=O)c1cc(OC(C)=O)c(OC(C)=O)c(OC(C)=O)c1`, 76 to 78 °C.
The result for `Cc1nc(-c2ccc(C(F)(F)F)cc2)sc1CN(C)c1ccc(OCC(=O)O)c(C(F)(F)F)c1` reads 180 to 181 °C; that for `C[C@H]1CCCN(C(=O)[C@@H]2Cc3cc(-c4ccccc4)ccc3N2c2ccc(=O)n(C)n2)C1`, 204 to 206 °C.
On to `CC(C)(C)OC(=O)Nc1cc(OCC2COC(=O)O2)c(C#Cc2ccccc2)cc1NC(=O)CC(=O)c1cccc(C#N)c1` (racemic), for which the melting point is 181 °C.
In the case of `Cc1nc(OCc2c(C(C)C)nnn2-c2c(Cl)cccc2Cl)ccc1N(C)S(=O)(=O)c1ccc(C(=O)O)cc1` it was 128 to 129 °C.
The result for `NC(=O)c1cccc(N)c1N` reads 103 to 105 °C; that for `CCOC(=O)NC1Cc2ccccc2C1Sc1ccccc1` (stereo unspecified), 60.5 to 62 °C.
In the case of `CN1CCN(c2cc3c(Br)cccc3c(=O)[nH]2)CC1CO` (stereo unspecified) it was 200 to 202 °C; in that of `COC(=O)/C=C(\Cl)c1ccc(Cl)cc1`, 40 °C.
On to `C[C@@H]1S[C@@H](C(=O)Nc2ccc(CN3CCCCC3)cc2)Cc2cc3c(cc2C1=O)OCO3`, for which the melting point was 162 to 165 °C.
The result for `CC(C)C1(C)N=C(c2nc3occ(Cl)c3cc2C(=O)O)NC1=O` (stereo unspecified) reads 239 to 240 °C.
In the case of `C#Cc1cc(Nc2ncnc3cnc(NC(=O)CP(=O)(OCC)OCC)cc23)ccc1F` it was 103 to 106 °C.
The result for `Cn1ncc2[nH]c3ccc(F)cc3c(=O)c21` reads 301 °C.
In the case of `Cc1c(NC(=O)c2ccc(OCC3CCOC3)cc2)ccc2cc(CN3CCC(C)(O)CC3)cnc12` (stereo unspecified), the melting point is 160 to 162 °C.
As to `COc1ccc2c(c1)CC1(CCC(=O)CC1)C21OCCO1`, the melting point lay in the range of 142 to 144 °C.

The values are drawn from a melting point compilation (Tetko et al.; mined from patent text by program, amines drawn as free bases though some values may be those of a salt).
